Broadly, the LD50 is the dose at which mortality reaches 50%. A lower LD50 goes with greater toxicity.

Some results are limits rather than exact numbers.

For 22 compounds, LD50 and inhibition results are on record in patent US4985453A, “Parabanic acid derivatives and pharmaceutical compositions thereof” (Nippon Zoki Pharmaceutical Co., Ltd., priority 1988, dated 1991).

Tested on in the first data set: not listed separately
Nature of the data set: Acute toxicity test (oral, LD50). Conditions: rat, in vivo, Wistar-strain male rats, groups of 8, death rate of 7 days. On the procedure:
The test compounds of the present invention were orally administered to groups of 8 Wistar-strain male rats, and the LD50 values were calculated based on the death rate of 7 days.
Compound `O=C(O)CN1C(=O)C(=O)N(Cc2ccc(Br)cc2)C1=O` [Compound 44, 1-(4-Bromobenzyl)-3-carboxymethylparabanic acid] had an LD50 at 168 h of more than 5000 mg/kg. The compound `O=C(O)CN1C(=O)C(=O)N(Cc2ccc(Cl)c(Cl)c2)C1=O` [Compound 47, 3-Carboxymethyl-1-(3,4-dichlorobenzyl)parabanic acid] came in with an LD50 at 168 h of more than 2000 mg/kg.

`O=C(O)CN1C(=O)C(=O)N(Cc2cccc([N+](=O)[O-])c2)C1=O` [Compound 48, 3-Carboxymethyl-1-(3-nitrobenzyl)parabanic acid] registered an LD50 at 168 h of more than 5000 mg/kg.

Another data set addresses T1, aldose reductase prepared from rat lenses (Rattus norvegicus, UniProt P07943).
T1 construct: aldose reductase prepared from rat lenses; from tissue; host or cells: rat lens
The experiment in a line: Aldose reductase inhibitory activity. It is filed as biochemical. The settings on record: at 5×10^-7 M; glyceraldehyde substrate, NADPH, absorbance at 340 nm; read-out: Inhibitory rate (%) against aldose reductase. Here is the method: Aldose reductase inhibitory activity of the compound of the present invention was evaluated by using aldose reductase prepared from rat lenses. The test compound was added to the reaction mixture consisting of phosphate buffer, NADPH and aldose reductase. After stability of absorbance was confirmed for a few minutes, glyceraldehyde was added to the reaction mixture and then the decrease in absorbance at 340 nm with the passage of time was measured to assay the inhibitory activity of the test compound against aldose reductase.
The inhibitory rate (%) against aldose reductase in the table is the values at 5×10^-7 M of the each test compound.
Consider `O=C(O)CN1C(=O)C(=O)N(Cc2ccc(Cl)cc2Cl)C1=O` [Compound 46, 3-Carboxymethyl-1-(2,4-dichlorobenzyl)parabanic acid], for which the inhibition at 0.5 µM is 61%.

As for `O=C(O)CN1C(=O)C(=O)N(CCCCc2ccccc2)C1=O` [Compound 57, 3-Carboxymethyl-1-(4-phenylbutyl)parabanic acid], the inhibition at 0.5 µM worked out at 25%.

As to `COc1ccc(CCN2C(=O)C(=O)N(CC(=O)O)C2=O)cc1OC` [Compound 51, 3-Carboxymethyl-1-(2-(3,4-dimethoxyphenyl)ethyl)parabanic acid], the inhibition at 0.5 µM came out at 42%. Take `O=C(O)CN1C(=O)NC(=O)C1=O` [Compound 60, 1-carboxymethylparabanic acid]: the inhibition at 0.5 µM was 31%. On the same count and under the same terms, the figure for `O=C(O)CN1C(=O)C(=O)N(CCc2ccccc2Cl)C1=O` [Compound 52, 3-Carboxymethyl-1-(2-(2-chlorophenyl)ethyl)parabanic acid] is 37%. For `O=C(O)CN1C(=O)C(=O)N(CCc2ccc(Br)cc2)C1=O` [Compound 53, 1-(2-(4-Bromophenyl)ethyl)-3-carboxymethylparabanic acid], the inhibition at 0.5 µM is 47%. In the case of `O=C(O)CN1C(=O)C(=O)N(Cc2ccc(Br)cc2)C1=O` [Compound 44, 1-(4-Bromobenzyl)-3-carboxymethylparabanic acid], the inhibition at 0.5 µM stood at 65%. For `O=C(O)CN1C(=O)C(=O)N(CCc2ccccc2)C1=O` [Compound 49, 3-Carboxymethyl-1-(2-phenylethyl)parabanic acid], the inhibition at 0.5 µM worked out at 30%. With `CCCCCCN1C(=O)C(=O)N(CC(=O)O)C1=O` [Compound 33, 3-Carboxymethyl-1-hexylparabanic acid], the inhibition at 0.5 µM is 35%. In the case of `CC1CCC(N2C(=O)C(=O)N(CC(=O)O)C2=O)CC1` (stereo not shown) [Compound 34, 3-Carboxymethyl-1-(4-methylcyclohexyl)parabanic acid], the inhibition at 0.5 µM was determined as 49%. As to `O=C(O)CN1C(=O)C(=O)N(Cc2cccc(Cl)c2)C1=O` [Compound 42, 3-Carboxymethyl-1-(3-chlorobenzyl)parabanic acid], the inhibition at 0.5 µM is 31%. As to `Cc1ccc(CN2C(=O)C(=O)N(CC(=O)O)C2=O)cc1` [Compound 37, 3-Carboxymethyl-1-(4-methylbenzyl)parabanic acid], the inhibition at 0.5 µM was 30%. For the compound `Cc1ccc(CCN2C(=O)C(=O)N(CC(=O)O)C2=O)cc1` [Compound 50, 3-Carboxymethyl-1-(2-(4-methylphenyl)ethyl)parabanic acid], the inhibition at 0.5 µM worked out at 42%.

As for `Cc1ccccc1CN1C(=O)C(=O)N(CC(=O)O)C1=O` [Compound 36, 3-Carboxymethyl-1-(2-methylbenzyl)parabanic acid], the inhibition at 0.5 µM worked out at 41%.

With `O=C(O)CN1C(=O)C(=O)N(CCc2ccc(Cl)c(Cl)c2)C1=O` [Compound 54, 3-Carboxymethyl-1-(2-(3,4-dichlorophenyl)ethyl)parabanic acid], the inhibition at 0.5 µM was found to be 57%.

For the compound `O=C(O)CN1C(=O)C(=O)N(Cc2ccc(Cl)c(Cl)c2)C1=O` [Compound 47, 3-Carboxymethyl-1-(3,4-dichlorobenzyl)parabanic acid], the inhibition at 0.5 µM turned out to be 75%. Turning to `COc1cccc(CN2C(=O)C(=O)N(CC(=O)O)C2=O)c1` [Compound 39, 3-Carboxymethyl-1-(3-methoxybenzyl)parabanic acid], the inhibition at 0.5 µM came to 44%.

`O=C(O)CN1C(=O)C(=O)N(Cc2cccc([N+](=O)[O-])c2)C1=O` [Compound 48, 3-Carboxymethyl-1-(3-nitrobenzyl)parabanic acid]: the inhibition at 0.5 µM worked out at 75%.

On to `O=C(O)CN1C(=O)C(=O)N(Cc2ccc(Cl)cc2)C1=O` [Compound 43, 3-Carboxymethyl-1-(4-chlorobenzyl)parabanic acid], for which the inhibition at 0.5 µM was 56%. On the same count and under the same terms, then `O=C(O)CN1C(=O)C(=O)N(Cc2ccccc2Cl)C1=O` [Compound 41, 3-Carboxymethyl-1-(2-chlorobenzyl)parabanic acid], with 32%; and `O=C(O)CN1C(=O)C(=O)N(CCc2cccc([N+](=O)[O-])c2)C1=O` [Compound 55, 3-Carboxymethyl-1-(2-(3-nitrophenyl)ethyl)parabanic acid], with 36%; and `CCOC(=O)CN1C(=O)C(=O)N(Cc2cccc([N+](=O)[O-])c2)C1=O` [Compound 19, Ethyl 1-(3-nitrobenzyl)-2,4,5-trioxoimidazolidine-3-acetate], with 31%.
